In patent US11597708B2, “Inhibitors of heat shock factors and uses thereof” (HSF Pharmaceuticals SA, priority 2016, dated 2023):

Columns and labels:
A549 = test: Alamar Blue viability assay; assay type: cell-based; details: Homo sapiens, Lung, P53 Wt, 96-hour exposure
Experimental: (§1) Cultures of HeLa cells were exposed for 96 hours to different concentrations of IHSF 001, 058 and 115, and viability was assessed using an Alamar Blue assay. It is noted that this standard assay examines attached cells only. This subject will be discussed in more detail below. […] The relative cytotoxicity of the compounds appears to parallel their respective activities as inhibitors of HSF1 function (inhibition of RLuc expression in Z74 cells). We next examined the viability of different human cancer cell lines subsequent to a 96-hour exposure to compound 115 (Table 3). HSF1 was reported as being required for optimal p21 expression and for p53-mediated cell cycle arrest in response to genotoxins. Logan, I. R. et al. (2009) Nucleic Acids Res. 37: 2962-2971. […] Cell lines of different p53 status were included in the experiments in order to find out whether sensitivity to IHSF 115 was related to p53 status. […] No effect of p53 status could be discovered. It is noted that a number of additional HSF inhibitors of the present disclosure were tested and found to effectively reduce the viability of human cancer cells.

A673 = test: Alamar Blue viability assay; assay type: cell-based; details: Homo sapiens, Ewing’s sarcoma, P53 Mut, 96-hour exposure
Experimental: as §1

BT-20 = test: Alamar Blue viability assay; assay type: cell-based; details: Homo sapiens, Breast, P53 Mut, 96-hour exposure
Experimental: as §1

BT-474 = test: Alamar Blue viability assay; assay type: cell-based; details: Homo sapiens, Breast, P53 Mut, 96-hour exposure
Experimental: as §1

CAMA-1 = test: Alamar Blue viability assay; assay type: cell-based; details: Homo sapiens, Breast, P53 Mut, 96-hour exposure
Experimental: as §1

HCC1143 = test: Alamar Blue viability assay; assay type: cell-based; details: Homo sapiens, Breast, P53 Mut, 96-hour exposure
Experimental: as §1

HepG2 = test: Alamar Blue viability assay; assay type: cell-based; details: Homo sapiens, Hepatocellular, P53 Wt, 96-hour exposure
Experimental: as §1

IM9 = test: Alamar Blue viability assay; assay type: cell-based; details: Homo sapiens, IM-9, Multiple myeloma, P53 Wt, 96-hour exposure
Experimental: as §1

MCF-7 = test: Alamar Blue viability assay; assay type: cell-based; details: Homo sapiens, MCF7, Breast, P53 Wt, 96-hour exposure
Experimental: as §1

MDA-MB-231 = test: Alamar Blue viability assay; assay type: cell-based; details: Homo sapiens, Breast, P53 Mut, 96-hour exposure
Experimental: as §1

MDA-MB-453 = test: Alamar Blue viability assay; assay type: cell-based; details: Homo sapiens, Breast, P53 Mut, 96-hour exposure
Experimental: as §1

MG-63 = test: Alamar Blue viability assay; assay type: cell-based; details: Homo sapiens, Osteosarcoma, P53 Mut, 96-hour exposure
Experimental: as §1

MM.1R = test: Alamar Blue viability assay; assay type: cell-based; details: Homo sapiens, Multiple myeloma, P53 Wt, 96-hour exposure
Experimental: as §1

MNNG/HOS = test: Alamar Blue viability assay; assay type: cell-based; details: Homo sapiens, Osteosarcoma, P53 Mut, 96-hour exposure
Experimental: as §1

NCI-H1975 = test: Alamar Blue viability assay; assay type: cell-based; details: Homo sapiens, Lung, P53 Wt, 96-hour exposure
Experimental: as §1

NCI-H2228 = test: Alamar Blue viability assay; assay type: cell-based; details: Homo sapiens, Lung, P53 Wt, 96-hour exposure
Experimental: as §1

NCI-H3122 = test: Alamar Blue viability assay; assay type: cell-based; details: Homo sapiens, Lung, P53 Wt, 96-hour exposure
Experimental: as §1

NCI-H460 = test: Alamar Blue viability assay; assay type: cell-based; details: Homo sapiens, Lung, P53 Wt, 96-hour exposure
Experimental: as §1

OV56 = test: Alamar Blue viability assay; assay type: cell-based; details: Homo sapiens, Ovarian carcinoma, P53 Mut, 96-hour exposure
Experimental: as §1

PC-3 = test: Alamar Blue viability assay; assay type: cell-based; details: Homo sapiens, Prostate, P53 Null, 96-hour exposure
Experimental: as §1

PEA1 = test: Alamar Blue viability assay; assay type: cell-based; details: Homo sapiens, Ovarian carcinoma, P53 Mut, 96-hour exposure
Experimental: as §1

RPMI 8266 = test: Alamar Blue viability assay; assay type: cell-based; details: Homo sapiens, RPMI8266, Multiple myeloma, P53 Mut, 96-hour exposure
Experimental: as §1

SK-N-SH = test: Alamar Blue viability assay; assay type: cell-based; details: Homo sapiens, Neuroblastoma, P53 Wt, 96-hour exposure
Experimental: as §1

SK-OV-3 = test: Alamar Blue viability assay; assay type: cell-based; details: Homo sapiens, Ovarian carcinoma, P53 Mut, 96-hour exposure
Experimental: as §1

Saos-2 = test: Alamar Blue viability assay; assay type: cell-based; details: Homo sapiens, Osteosarcoma, P53 Null, 96-hour exposure
Experimental: as §1

T47D = test: Alamar Blue viability assay; assay type: cell-based; details: Homo sapiens, Breast, P53 Mut, 96-hour exposure
Experimental: as §1

THP-1 = test: Alamar Blue viability assay; assay type: cell-based; details: Homo sapiens, Acute monocytic leukemia, P53 Mut, 96-hour exposure
Experimental: as §1

U-2 OS = test: Alamar Blue viability assay; assay type: cell-based; details: Homo sapiens, U2OS, Osteosarcoma, P53 WT, 96-hour exposure
Experimental: as §1

U266B1 = test: Alamar Blue viability assay; assay type: cell-based; details: Homo sapiens, Multiple myeloma, P53 Mut, 96-hour exposure
Experimental: as §1

sNF02.2 = test: Alamar Blue viability assay; assay type: cell-based; details: Homo sapiens, Malignant peripheral nerve sheath, P53 Wt, 96-hour exposure
Experimental: as §1

sNF96.2 = test: Alamar Blue viability assay; assay type: cell-based; details: Homo sapiens, Malignant peripheral nerve sheath, P53 Wt, 96-hour exposure
Experimental: as §1

[1] = tested on: KD 13 (HeLa-derived, HSF1 siRNA); test: Alamar Blue assay of HSF1-deficient KD 13 line versus KD control cells; assay type: cell-based, human; details: 96 hours exposure, different concentrations
Experimental: FIG. 7. (A) Upper panel: HSF1 levels in cultures of KD control and KD13 cells as assayed by WB. Lower panel: number of alive KD control and KD13 cells after 1-4 days of culture as determined by Trypan Blue dye exclusion. […] Cell viability was assayed by Alamar Blue assay.
The most severely HSF1-deficient lines grew slowly. FIG. 7 reports on the properties of one such line, KD 13, which was compared to control lentivirus-transduced cells (KD control). The WB in FIG. 7A (upper panel) confirms that the KD 13 line is essentially devoid of HSF1. The lower panel compares growth of the cell line with that of the control cells (the graph showing numbers of Trypan Blue-excluding (live) cells after 1-4 days of culture). We conclude that the KD 13 line has partially overcome its HSF1 dependency.

Compound: CN(C(=O)/C=C/C1=NCCCO1)c1ncc(-c2cccnc2)s1 [IHSF 115, (E)-3-(5,6-Dihydro-4H-[1,3]oxazin-2-yl)-N-methyl-N-(5-pyridin-3-yl-thiazol-2-yl)-acrylamide]
- EC50 (A549): 18.8 µM
- EC50 (A673): 1.9 µM
- EC50 (BT-20): 8.2 µM
- EC50 (BT-474): 5.2 µM
- EC50 (CAMA-1): 3.5 µM
- EC50 (HCC1143): 4.8 µM
- EC50 (HepG2): 5.2 µM
- EC50 (IM9): 2.3 µM
- EC50 (MCF-7): 5.2 µM
- EC50 (MDA-MB-231): 2.2 µM
- EC50 (MDA-MB-453): 4.2 µM
- EC50 (MG-63): 4.6 µM
- EC50 (MM.1R): 1.7 µM
- EC50 (MNNG/HOS): 9.2 µM
- EC50 (NCI-H1975): 5.1 µM
- EC50 (NCI-H2228): 12.8 µM
- EC50 (NCI-H3122): 11 µM
- EC50 (NCI-H460): 9.4 µM
- EC50 (OV56): 6.8 µM
- EC50 (PC-3): 4 µM
- EC50 (PEA1): 4.1 µM
- EC50 (RPMI 8266): 3.6 µM
- EC50 (SK-N-SH): 4 µM
- EC50 (SK-OV-3): 15 µM
- EC50 (Saos-2): 8 µM
- EC50 (T47D): 4.4 µM
- EC50 (THP-1): 6.9 µM
- EC50 (U-2 OS): 5.2 µM
- EC50 (U266B1): 3.9 µM
- EC50 (sNF02.2): 8.4 µM
- EC50 (sNF96.2): 4.2 µM
- resistance of KD 13 line versus control lentivirus-transduced cells to killing [1]: more resistant to killing
